Test results as given in patent US10370372B2, “Fused pyrimidine compound or salt thereof” (TAIHO PHARMACEUTICAL CO., LTD., priority 2015, dated 2019).
Like-named read-outs stand apart in the source and are kept apart here.

Legend:
Type in all cases: cell-based
[1] = molecular target: T1, human androgen receptor (Homo sapiens, UniProt P10275); experiment: Antagonist activity for AR: MMTV-luc reporter transcription in COS-7 cells transfected with human AR, stimulated with DHT
T1 construct: expressed in transfected cells; host or cells: COS-7 cells (ATCC)
T1 sequence (P10275 1-920): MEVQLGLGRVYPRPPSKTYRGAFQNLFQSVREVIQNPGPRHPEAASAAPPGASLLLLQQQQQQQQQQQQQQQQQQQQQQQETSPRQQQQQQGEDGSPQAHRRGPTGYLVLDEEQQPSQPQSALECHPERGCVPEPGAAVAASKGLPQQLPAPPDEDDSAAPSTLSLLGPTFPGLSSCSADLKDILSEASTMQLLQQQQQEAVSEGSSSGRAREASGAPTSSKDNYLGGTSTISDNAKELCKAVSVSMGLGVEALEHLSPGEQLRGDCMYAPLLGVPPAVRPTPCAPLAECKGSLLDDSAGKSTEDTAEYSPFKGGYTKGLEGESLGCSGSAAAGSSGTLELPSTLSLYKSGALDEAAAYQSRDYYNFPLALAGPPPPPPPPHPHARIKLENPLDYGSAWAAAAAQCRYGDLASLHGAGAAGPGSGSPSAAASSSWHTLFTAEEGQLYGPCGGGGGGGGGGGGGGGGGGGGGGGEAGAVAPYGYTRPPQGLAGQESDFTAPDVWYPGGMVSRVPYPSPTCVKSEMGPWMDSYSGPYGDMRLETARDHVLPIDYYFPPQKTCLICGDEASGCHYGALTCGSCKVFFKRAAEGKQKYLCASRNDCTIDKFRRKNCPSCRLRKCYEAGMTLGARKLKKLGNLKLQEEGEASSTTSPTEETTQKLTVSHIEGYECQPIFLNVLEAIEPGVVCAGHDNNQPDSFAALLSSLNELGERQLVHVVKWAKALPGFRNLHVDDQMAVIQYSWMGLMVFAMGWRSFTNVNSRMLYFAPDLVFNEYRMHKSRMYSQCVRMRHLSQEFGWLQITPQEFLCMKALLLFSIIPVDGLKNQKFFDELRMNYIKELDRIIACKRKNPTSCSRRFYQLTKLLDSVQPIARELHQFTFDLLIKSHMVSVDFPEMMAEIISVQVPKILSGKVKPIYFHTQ
Procedure: Antagonist activity for AR was evaluated according to the following method. COS-7 cells (ATCC) were transfected with pMMTV-luc vector (reporter plasmid having, as an androgen response element, […] long terminal repeat) and pEX-hAR vector (human androgen receptor expression vector: which expresses human AR gene under control of CMV promoter) by using Nucleofector (registered trademark) Kit R (Lonza) as a transfection reagent and Amaxa (Lonza). The COS-7 cells obtained after transfection were seeded in a clear bottom 96 well microplate (BD) at 1.5×10^4/well with phenol red free RPMI1640 containing 10% charcoal-treated fetal bovine serum (hereinbelow, DCC-FBS) (hereinbelow, the medium is referred to as an evaluation medium), and then cultured overnight. […] Then, the transcription activity value of the reporter plasmid was measured. The transcription activity was measured by using Bright-Glo™ Luciferase Assay System (Promega).

[2] = system: Human prostate cancer cells LNCaP; experiment: Inhibitory activity on androgen-dependent proliferation of prostate cancer cells; settings: 1 nmol/L DHT, 72 hours, Cell Counting Kit-8, read-out: Proliferation inhibition concentration GI50 value
Procedure: Human prostate cancer cells LNCaP (Non-Patent Literature 5) having […] androgen receptor gene were seeded in a clear bottom 96 well microplate (BD) at 4.0×10^3/well with phenol red free RPMI1640 containing 5% DCC-FBS (hereinbelow, the medium is referred to as an evaluation medium), and then cultured overnight. […] Then, the number of viable cells was measured. The number of viable cells was measured by using Cell Counting Kit-8 (DOJINDO LABORATORIES).

[3] = system: AR expression in LNCaP; experiment: Activity of reducing expression level of androgen receptor (Western blotting in LNCaP); settings: Homo sapiens, read-out: AR expression reducing activity
Procedure: AR positive human prostate cancer cells LNCaP were seeded in a 6 well microplate (BD) at 3.5×10^5/well with RPMI1640 containing 5% FBS (hereinbelow, the medium is referred to as an evaluation medium), and then cultured overnight. […] After culture for 48 hours, the medium was removed and the cells were washed with PBS and added with 0.1 mL of Lysis buffer (M-PER added with Protease Inhibitor Cocktail), followed by keeping at 4° C. for 20 minutes. After cell lysis, the cell solution was centrifuged to recover the supernatant as cell lysate. […] The antibody-reacting band (anti AR receptor) was quantified by LAS Imaging System (FUJIFILM) using Super Signal West Dura Substrate (Thermo Scientific) as a detection reagent.
When the AR expression reducing activity is 50% or more, it is described as “reduced”.

[4] = system: AR positive human prostate cancer cells VCaP; experiment: Agonist activity for AR: cell proliferation rate of VCaP cells; settings: 5-10000 nmol/L, 72 hours, relative to evaluation medium only, more than 10% = agonist activity
Procedure: Then, the number of viable cells was measured (test group). As a control, the cells were cultured after being added with the evaluation medium only, and the number of viable cells was measured (control group). The number of viable cells was measured by using CellTiter-Glo™ Luminescent Cell Viability Assay (Promega). From the measured number of viable cells, cell proliferation rate with respect to the compound of Examples or the compound of Comparative Examples was calculated based on the number of viable cells measured in the case of using the evaluation medium only. Cell proliferation rate (%)=(Number of viable cells in test group−Number of viable cells in control group)/(Number of viable cells in control group)×100
By considering an error in the number of viable cells measured in the case of using the evaluation medium only, when the cell proliferation rate was more than 10% at any concentration of the 8 concentrations which had been evaluated, it was determined to have an agonist activity for AR.

[5] = COS-7 cells with pMMTV-luc and pEX-hAR, 1 nmol/L DHT, 24 hours, read-out: AR antagonist IC50
[6] = 10000 nmol/L, 48 hours, vs evaluation medium control

| SMILES | IC50 [1] | GI50 [2] | inhibition at 10 µM ([3]; 48 h) | Cell proliferation rate (%) [4] | IC50 [1, 5] | inhibition at 10 µM [3, 6] |
| --- | --- | --- | --- | --- | --- | --- |
| CNC(=O)c1ccc(Nc2ncnc3c2CCN(c2ccc(C#N)c(Cl)c2)C3)nc1F [Example 2, 6-((7-(3-chloro-4-cyanophenyl)-5,6,7,8-tetrahydropyrido[3,4-d]pyrimidin-4-yl)amino)-2-fluoro-N-methylnicotinamide] | 0.033 µM | 0.29 µM | > 50% | – | – | – |
| CC(=O)N1CCN(CCCOc2ccc(Nc3ncnc4c3CCN(c3ccc(C#N)c(Cl)c3)C4)cc2Cl)CC1 [Example 42, 4-(4-((4-(3-(4-Acetylpiperazin-1-yl)propoxy)-3-chlorophenyl)amino)-5,6-dihydropyrido[3,4-d]pyrimidin-7(8H)-yl)-2-chlorobenzonitrile] | 0.56 µM | 1.3 µM | > 50% | 5.1% | – | – |
| COc1ccc(Nc2nc(C#N)nc3c2CCN(c2ccc(C#N)c(C(F)(F)F)c2)C3)cc1 [Example 47, 7-(4-Cyano-3-(trifluoromethyl)phenyl)-4-((4-methoxyphenyl)amino)-5,6,7,8-tetrahydropyrido[3,4-d]pyrimidine-2-carbonitrile] | 0.7 µM | 0.45 µM | > 50% | −1.7% | – | – |
| CC(C)(C)ONC(=O)c1ccc(Nc2ncnc3c2CCN(c2ccc(C#N)c(C(F)(F)F)c2)C3)nc1 [Example 7, N-(tert-butoxy)-6-((7-(4-cyano-3-(trifluoromethyl)phenyl)-5,6,7,8-tetrahydropyrido[3,4-d]pyrimidin-4-yl)amino)nicotinamide] | – | 0.18 µM | > 50% | 0.90% | 0.38 µM | – |
| CC(O)(CS(=O)(=O)c1ccc(F)cc1)C(=O)Nc1ccc(C#N)c(C(F)(F)F)c1 (stereo not shown) [Bicalutamide, reference compound] | – | 2.3 µM | < 10% | 36% | – | – |
| CC(C)(C)OC(=O)N1Cc2ccc(Nc3ncnc4c3CCN(c3ccc(C#N)c(Cl)c3)C4)cc2C1 [Example 29, tert-butyl 5-((7-(3-chloro-4-cyanophenyl)-5,6,7,8-tetrahydropyrido[3,4-d]pyrimidin-4-yl)amino)isoindoline-2-carboxylate] | 0.22 µM | 0.83 µM | > 50% | 2.4% | – | – |
| N#Cc1ccc(N2CCc3c(ncnc3Nc3ccc(C4(O)COC4)c(F)n3)C2)cc1Cl [Example 35, 2-Chloro-4-(4-((6-fluoro-5-(3-hydroxyoxetan-3-yl)pyridin-2-yl)amino)-5,6-dihydropyrido[3,4-d]pyrimidin-7(8H)-yl)benzonitrile] | – | – | > 50% | 9.4% | 0.12 µM | – |
| COc1ccc(Nc2nc(C)nc3c2CCN(c2ccc(C#N)c(C(F)(F)F)c2)C3)cc1 [Example 48, 4-(4-((4-Methoxyphenyl)amino)-2-methyl-5,6-dihydropyrido[3,4-d]pyrimidin-7(8H)-yl)-2-(trifluoromethyl)benzonitrile] | – | 0.61 µM | > 50% | −1.6% | 1 µM | – |
| CNC(=O)c1ccc(Nc2ncnc3c2CCN(c2ccc(C#N)c(C(F)(F)F)c2)C3)nc1F [Example 3, 6-((7-(4-cyano-3-(trifluoromethyl)phenyl)-5,6,7,8-tetrahydropyrido[3,4-d]pyrimidin-4-yl)amino)-2-fluoro-N-methylnicotinamide] | 0.031 µM | 0.36 µM | > 50% | 8.9% | – | – |
| N#Cc1ccc(N2CCc3c(ncnc3Nc3ccc(N4CC5(COC5)C4)cc3)C2)cc1Cl [Example 28, 4-(4-((4-(2-oxa-6-azaspiro[3.3]heptan-6-yl)phenyl)amino)-5,6-dihydropyrido[3,4-d]pyrimidin-7(8H)-yl)-2-chlorobenzonitrile] | 0.68 µM | 0.68 µM | > 50% | 1.4% | – | – |
| Cc1cc(N2CCc3c(ncnc3Nc3ccc(C(C)(C)O)cn3)C2)ccc1[N+](=O)[O-] [Example 16, 2-(6-((7-(3-methyl-4-nitrophenyl)-5,6,7,8-tetrahydropyrido[3,4-d]pyrimidin-4-yl)amino)pyridin-3-yl)propan-2-ol] | – | 0.23 µM | – | −1.8% | 0.07 µM | > 50% |
| Cc1cc(N2CCc3c(ncnc3Nc3ccc(C(C)(C)O)cn3)C2)ccc1C#N [Example 20, 4-(4-((5-(2-hydroxypropan-2-yl)pyridin-2-yl)amino)-5,6-dihydropyrido[3,4-d]pyrimidin-7(8H)-yl)-2-methylbenzonitrile] | – | – | – | −0.89% | 0.48 µM | > 50% |
| CCNC(=O)c1ccc(Nc2ncnc3c2CCN(c2ccc(C#N)c(C(F)(F)F)c2)C3)nn1 [Example 10, 6-((7-(4-cyano-3-(trifluoromethyl)phenyl)-5,6,7,8-tetrahydropyrido[3,4-d]pyrimidin-4-yl)amino)-N-ethylpyridazine-3-carboxamide] | 0.007 µM | 0.4 µM | > 50% | – | – | – |
| N#Cc1ccc(N2CCc3c(ncnc3Nc3ccc(OCCCN4CCNCC4)c(C(F)(F)F)c3)C2)cc1Cl [Example 38, 2-chloro-4-(4-((4-(3-(piperazin-1-yl)propoxy)-3-(trifluoromethyl)phenyl)amino)-5,6-dihydropyrido[3,4-d]pyrimidin-7(8H)-yl)benzonitrile] | 0.95 µM | 0.12 µM | – | −1.3% | – | – |
| CC(C)(O)c1ccc(Nc2ncnc3c2CCN(c2ccc([N+](=O)[O-])c(Cl)c2F)C3)nc1 [Example 18, 2-(6-((7-(3-chloro-2-fluoro-4-nitrophenyl)-5,6,7,8-tetrahydropyrido[3,4-d]pyrimidin-4-yl)amino)pyridin-3-yl)propan-2-ol] | – | – | – | 9.5% | 1 µM | – |
| COc1cc(N2CCc3c(ncnc3Nc3ccc(C(C)(C)O)cn3)C2)ccc1[N+](=O)[O-] [Example 15, 2-(6-((7-(3-methoxy-4-nitrophenyl)-5,6,7,8-tetrahydropyrido[3,4-d]pyrimidin-4-yl)amino)pyridin-3-yl)propan-2-ol] | – | 3 µM | – | 7.7% | 0.26 µM | – |
